Data set [1] in a line: LC-MS/MS determination of P3 after exposure to seminal plasma or vaginal fluid simulant. Format: in vitro ADME, human. As to conditions: triplicates; for P3 level: 37°C, LC-MS/MS, below limit of quantification (2.5 ppm). The procedure:
Individual standard solutions (0.25–250 ppm) of P3 were prepared in acetonitrile (99.9% LC–MS) (J.T.Baker, Deventer, the Netherlands) in the presence of SP (0.5 or 1.0%), VFS or growth medium (GM) and analyzed after 24h, 48h and 1 week. In order to precipitate the proteins in the biological fluids, 1 ml of acetonitrile (1:1) was added to 1 ml of sample and samples were centrifuged at 13,000 rpm for 10 min and filtered ([…] PVDF membrane; Chromafil®Xtra from Macherey-Nagel®) just before analysis, All samples were analyzed as triplicates.
The LC system was a Waters® Alliance 2695 (Waters®) equipped with a quaternary pump, solvent degasser, auto sampler and column oven, coupled to a Photodiode Array Detector Waters 996 PDA (Waters®) scanning from 210 to 600 nm. The separation was performed on a reversed phase column LiChrospher® 100 RP-18 (10 x 4.0mm; Merck®, Germany) operating at 35 °C, using an injection volume of 10 μl. The mobile phase consisted of water [Ultra-pure water (18.2MΩ.cm) from a Millipore-Direct Q3 UV system (Millipore, USA)] with TFA 0.1% (v/v) (98% p.a.; Merck®, Germany) (A) and acetonitrile with TFA 0.1% (v/v) (B) at a flow rate of 0.30 ml/min. The following gradient was used: 70% of A as initial conditions, 70% A to 30% A for 7 min. A cleaning step was performed using 100% of acetonitrile for 1 min and finally the column was re-equilibrated with 70% of eluent A for 5 min.
A triple quadrupole mass spectrometer MicroMass® Quattro micro (Micromass®, Waters®) with an electrospray ionization source (ESI) was coupled to the LC system, described above. The ion source conditions were optimized using a standard solution directly injected in the ion source: temperature 120°C, capillary voltage 3.0 kV and cone voltage 50 V. The compound was ionized in positive ion mode and the spectra, in Full Scan, were recorded in the range m/z 100–1700. All analyses were performed in multiple reactions monitoring (MRM) mode in order to achieve a high selectivity and sensitivity. […]

The test system of another data set is HIV-1 isolate 93AOHDC250. As to the kind of experiment: Single-round viral infectivity assay, luciferase, TZM-bl reporter cells, after exposure of P3 to fluids, temperature, pH or H2O2. The procedure:
The antiviral activity of P3 in the presence of SP and VFS was determined with a single-round viral infectivity assay using TZM-bl reporter cells, as previously described. Briefly, TZM-bl cells were plated (1x10^4 cells/well) in a 96-plate and incubated overnight at 37°C with 5% CO2. […] The same procedure was done with VFS and with SP+VFS. Cells were then infected with 200 TCID50 (in 100 μl) of HIV-1 isolate 93AOHDC250 and incubated for 48h before measuring the luciferase activity with the Pierce Firefly Luc One-Step Glow Assay Kit (ThermoFisher Scientific, Rockford, USA) according to the manufacturer’s instructions. At least two independent experiments, each in triplicate, were performed for each antiviral activity analysis. For these experiments, the positive control was made of cells plus virus, the negative control was made of cells plus complete growth medium, compound controls were made of cells plus P3 alone or P3 in SP, VFS or SP+VPS, and the biological fluids control were made of cells plus SP, VFS or SP+VFS.
The long-term stability of P3 was evaluated in the presence of SP [0.5% or 1% (v/v)] or VFS at 37°C for a period of 24h, 48h and 1 week before performing the assay, as described above. In all cases, P3 was considered stable in the presence of biologic fluids if its antiviral activity was unaffected by SP, VFS and SP+VFS. In addition, peptide concentration was determined after exposure to the above conditions by mass spectrometry as described below.
The stability and antiviral activity of P3 were evaluated at different conditions of temperature, pH and oxidation. […] The antiviral activity of each peptide solution was then evaluated with a single-round viral infectivity assay using TZM-bl reporter cells and HIV-1 isolate 93AOHDC250, as described above.
The effect of pH on P3 was evaluated at pH ranging from 4 to 8. Briefly, IC50 peptide solutions were prepared in GM and the pH was adjusted using HCl (1M) or NaOH (1M). Each solution was then incubated at 37°C for 2, 8 and 24 hours and their antiviral activity was determined in a single-round viral infectivity assay using a luciferase reporter gene assay in TZM-bl cells as described above.
To test for oxidation by H2O2, P3 solutions at concentrations corresponding to the IC50 and IC90 were treated with H2O2 at biologic relevant concentrations (1.2μM and 5μM). The antiviral activity of the different solutions was determined in a single-round viral infectivity assay using a luciferase reporter gene assay in TZM-bl cells, as described above.
Controls for these experiments were the following: positive controls (cells plus virus), negative controls (cells plus complete growth medium); pH compound controls (cells plus P3 in different pH growth medium); H2O2 compound controls (cells plus P3 in H2O2, 1.2μM or 5μM); cell controls were also performed under the same incubation conditions. H2O2 and pH cytotoxicity were assessed in TZM-bl cells using alamarBlue assay. In all cases, P3 was considered stable when its antiviral activity was unaffected under the different conditions tested.

The next data set has as its system spermatozoa. As to the kind of experiment: Spermicidal activity: sperm motility (CASA) and viability (Eosin Y). Type of data set: cell-based, human. The following applies: 114 μM P3, 37°C, 0, 30, 60, 120 and 240 min, versus control without P3; donors n = 3. The procedure: Sperm was obtained from normal donors (n = 3) after signing a written informed consent. […] Spermatozoa viability was evaluated by dye exclusion method using a solution of Eosin Y (5mg/mL). Two hundred spermatozoa were counted with a phase-contrast microscope (Olympus, Modell BH-2), differentiating the live (unstained) spermatozoa from the dead (stained) cells. Sperm motility was evaluated in a Makler chamber using a computer-aided sperm analysis system (CASA, Hamilton Thorne Research, MA, USA). At least five microscopic fields were assessed in a systematic way to classify 200 spermatozoa motility. Each spermatozoon is graded according to cell velocity: progressive motility (i.e.,>5 μm/s), non-progressive motility (<5 μm/s) and immotility.

Take `CC[C@H](C)[C@H](NC(=O)[C@H](CC(N)=O)NC(=O)[C@H](C)NC(=O)[C@H](CCC(=O)O)NC(=O)[C@H](CC(C)C)NC(=O)[C@H](Cc1ccc(O)cc1)NC(=O)[C@H](CCCNC(=N)N)NC(=O)[C@@H](NC(=O)[C@H](CCC(N)=O)NC(=O)[C@H](CCC(N)=O)NC(=O)[C@H](CCC(=O)O)NC(=O)[C@H](Cc1c[nH]c2ccccc12)NC(=O)[C@H](CCC(=O)O)NC(=O)[C@H](CCC(N)=O)NC(=O)[C@H](Cc1c[nH]c2ccccc12)NC(C)=O)C(C)C)C(=O)N[C@@H](CO)C(=O)N[C@@H](CCC(N)=O)C(=O)N[C@@H](CCCNC(=N)N)C(=O)N[C@@H](CC(C)C)C(=O)N[C@@H](CCC(=O)O)C(=O)N[C@@H](CCC(N)=O)C(=O)N[C@@H](C)C(=O)N[C@@H](CCC(N)=O)C(=O)N[C@H](C(=O)N[C@@H](CCC(N)=O)C(=O)N[C@@H](CCC(N)=O)C(=O)N[C@@H](CCC(=O)O)C(=O)N[C@@H](CCCCN)C(=O)N[C@@H](CC(N)=O)C(=O)N[C@@H](CCSC)C(=O)N[C@@H](Cc1ccc(O)cc1)C(=O)N[C@@H](CCC(=O)O)C(=O)N[C@@H](CC(C)C)C(=O)N[C@@H](CCC(N)=O)C(N)=O)[C@@H](C)CC` [P3]: the P3 level in data set [1] (after 48h in 1% human seminal plasma) and in data set [1] (after one week in 0.5% human seminal plasma) was < 2.5 µg/mL in each case. Besides, in data set [1] (vaginal fluid simulant pH 4.2, LC-MS/MS (MRM)), the “detection of P3 in the presence of VFS” value was “readily detectable”. In the data set on HIV-1 isolate 93AOHDC250 (P3 366.4 nM, seminal plasma 1% (v/v), 37°C, 1 week), the “antiviral activity in the presence of SP 1%” value is listed as “significant decrease of antiviral activity”. The “antiviral activity in the presence of human fluids” value in the data set with HIV-1 isolate 93AOHDC250 (P3 366.4 nM, SP 0.5% or 1% (v/v), VFS, SP+VFS, 37°C, up to 1 week of contact, at least two experiments in triplicate) is reported as “unaffected”. The “time of full antiviral activity in the presence of human biological fluids” value in the data set on HIV-1 isolate 93AOHDC250 (P3 366.4 nM, SP 0.5% or 1%, VFS, 37°C) is listed as “at least 48 h”. Moreover, the mean viral inhibition was 99% in the data set on HIV-1 isolate 93AOHDC250 (P3 at IC90 (366.4 nM) in growth medium, incubated 1 week at 25°C before assay); 99% in the data set with HIV-1 isolate 93AOHDC250 (P3 at IC90 (366.4 nM) in growth medium, incubated 1 week at 37°C before assay); 100% with HIV-1 isolate 93AOHDC250 (P3 at IC90 (366.4 nM) in growth medium, incubated 1 week at 65°C before assay); 99% in the data set with HIV-1 isolate 93AOHDC250 (control: P3 at IC90 (366.4 nM), antiviral activity determined after 48h at 37°C). In the data set on spermatozoa, the spermatozoa motility result is on record as “No significant changes”. In the data set on spermatozoa, the spermatozoa vitality result is listed as “No significant changes”.
